Measured values taken from article PMC11990879, “Anticandidal Activity of Lipopeptides Containing an LL-37-Derived Peptide Fragment KR12” (Molecules, 2025).
Converted amounts (≈) assume the structure as drawn. Read-outs that look alike come from different tables or passages of the source. Marks after values point to notes of the source that are not given here. Where a SMILES comes first, the peptide text is derived from it. The star is where a group is joined. Lauroyl = CCCCCCCCCCCC(=O)*; Decanoyl = CCCCCCCCCC(=O)*; Octanoyl = CCCCCCCC(=O)*; X1 = CCCCCCC(CCCC)C(=O)*

How the values were obtained:
C. albicans ATCC 10231 [1] = assay: microbe, parasite or virus in culture; type: cell-based, Candida albicans; conditions: C. albicans, RPMI 1640, inoculum ca. 5 × 10^3 CFU/mL, range 0.5–256 mg/L, 48 h, 25 °C, read visually, three times on three days
Procedure: (§1) Fungal strains were purchased from the Polish Collection of Microorganisms (Polish Academy of Science, Wroclaw, Poland). Four reference strains of Candida (C. albicans ATCC 10231, C. glabrata ATCC 15126, C. lypolytica PCM 2680, and C. tropicalis PCM 2680) were cultured on the Dextrose Sabouraud Agar (DSA, Neogen, Lansing, MI, USA). Before performing the assays, the fungi were cultured in a Sabouraud dextrose broth (DSB, Neogen, Lansing, MI, USA) for 48 h under aerobic conditions at 25 °C. Afterward, the fungal cultures were centrifuged (2500 rpm, 10 min) and resuspended in the appropriate liquid medium for appropriate inoculums for the performed assays.
(§2) The strains cultured described in Section 4.1 were suspended in the Roswell Park Memorial Institute 1640 Medium (RPMI, Sigma-Aldrich, St. Louis, MO, USA) at an initial inoculum of ca. 5 × 10^3 CFU/mL. The stock solutions (1024 mg/L) of tested compounds in RPMI were added to 96-well polystyrene plates and diluted serially to well no. 10, leaving wells 11 and 12 for fertility and sterility controls. The tested Candida strains were exposed to graded concentrations (range 0.5–256 mg/L) of the lipopeptides and conventional antifungals (benzalkonium chloride, fluconazole, and nystatin) for 48 h under aerobic conditions at 25 °C. After incubation, the results were read visually.

C. albicans ATCC 10231 [2] = assay: microbe, parasite or virus in culture; type: cell-based, Candida albicans; conditions: 48 h, 25 °C, read visually, three times
Procedure: as §1, §2
(§3) Then the results were read visually. Both MIC as well as the MFC assays were performed threetimes on three different days.

C. glabrata ATCC 15126 [3] = assay: microbe, parasite or virus in culture; type: cell-based, Candida glabrata; conditions: first C. glabrata column, RPMI 1640, inoculum ca. 5 × 10^3 CFU/mL, range 0.5–256 mg/L, 48 h, 25 °C, read visually, three times on three days
Procedure: as §1, §2

C. glabrata ATCC 15126 [4] = assay: microbe, parasite or virus in culture; type: cell-based, Candida glabrata; conditions: 48 h, 25 °C, read visually, three times
Procedure: as §1, §2, §3

C. lypolytica PCM 2680 [5] = assay: microbe, parasite or virus in culture; type: cell-based, Candida lipolytica; conditions: range 0.5–256 mg/L, 48 h, 25 °C, read visually, three times on three days
Procedure: as §1, §2

C. lypolytica PCM 2680 [6] = assay: microbe, parasite or virus in culture; type: cell-based, Candida lipolytica; conditions: 48 h, 25 °C, read visually, three times
Procedure: as §1, §2, §3

C. tropicalis PCM 2680 [7] = assay: microbe, parasite or virus in culture; type: cell-based, Candida tropicalis; conditions: C. tropicalis, RPMI 1640, inoculum ca. 5 × 10^3 CFU/mL, range 0.5–256 mg/L, 48 h, 25 °C, read visually, three times on three days
Procedure: as §1, §2

C. tropicalis PCM 2680 [8] = assay: microbe, parasite or virus in culture; type: cell-based, Candida tropicalis; conditions: 48 h, 25 °C, read visually, three times
Procedure: as §1, §2, §3

[9] = tested on: C. albicans biofilms cultured on polystyrene; type: cell-based, Candida albicans
Procedure: as §1
Fungal suspensions in DSB were added to the wells at initial inoculums of ca. 5 × 10^6 CFU/mL and incubated under aerobic conditions, at 25 °C for 24 h, 48 h, and 72 h, in order to grow candidal biofilms of different maturity. After the appropriate time of incubation, the wells were washed with phosphoric buffered (PBS), and fresh RPMI medium supplemented with antifungals and the lipopeptides at graded concentrations (range […]) were added. The fungal biofilms were exposed to the compounds for 24 h (aerobic conditions, 25 °C). After the exposure to antifungals, the content of the wells was aspirated and a 0.01% solution of resazurin (Sigma-Aldrich, St. Louis, MO, USA) in DSB was added. Resazurin (blue) was applied as a cell viability reagent, which upon contact with living cells is reduced to a pink resorufin. The samples with the dye were incubated for 1 h at 25 °C and the absorbance was measured at 570 and 600 nm with a microplate reader (Thermo Fisher Scientific, Waltham, MA, USA). The assays were performed four times on four different days. The results are presented as the means of the measured percentage of metabolic activity (MA) of fungi in the well when compared with positive (sample with Candida in DSB) and negative controls (pure DSB), which were taken as 100% and 0%, respectively. The MA of Candida in the samples was measured according to the following formula:MA(%) = (ΔAbs of sample − ΔAbs of negative control)/(ΔAbs of positive control − ΔAbs of negative control);(1) ΔAbs = absorbance at 570 nm − absorbance at 600 nm.(2)
The MBEC was taken as the lowest concentration of antifungal which allowed us to reduce the metabolism of fungal cells to 10% (or less) of the positive control.

[10] = tested on: Candida strains (C. albicans, C. glabrata, C. lipolytica, C. tropicalis); type: cell-based; conditions: for Fungicidal activity (MFC relative to MIC): MFCs equal to or twice as high as the corresponding MICs; for MIC, range over the tested strains: 48 h
Procedure: as §1, §2, §3

[11] = tested on: C. albicans biofilms cultured on polystyrene; type: cell-based, Candida albicans; conditions: C. albicans biofilms of 24, 48 and 72 h, up to 512 mg/L
human red blood cells = conditions: cited from earlier work
Excerpt: Table 2 Minimum inhibitory concentrations (MIC) and minimum fungicidal concentrations (MFC) determined for peptides and reference antifungals [g/L]. The highest antimicrobial activity is marked in green, medium values in yellow, while the weakest antifungal activity is marked in red. Minimum hemolytic concentration (MHC5%—causing hemolysis of 5% of human red blood cells) determined in previous stu | column: MHC5%

[12] = tested on: Staphylococcus aureus biofilm; conditions: previous study; ref [21]; cited from earlier work
Excerpt: Lipidation has proven to be an effective strategy for improving the microbiological properties of the KR12-NH2 peptide. […] The influence of the structure of substituted fatty acids as well as the lipidation pattern was noticed. Among derivatives containing linear fatty acid residues, an analog with octanoic acid turned out to be the most promising antibacterial agent. The C8-KR12-NH2 peptide (compound IV) inhibited the growth of both Gram-p ...

[13] = MIC wells and two higher concentrations seeded on DSA
[14] = C. albicans biofilm cultured on polystyrene for 24 h, exposure 24 h, 25 °C, RPMI, resazurin, metabolic activity reduced to 10% or less, four times on four days
[15] = C. albicans biofilm cultured on polystyrene for 48 h, exposure 24 h, 25 °C, RPMI, resazurin, metabolic activity reduced to 10% or less, four times on four days
[16] = C. albicans biofilm cultured on polystyrene for 72 h, exposure 24 h, 25 °C, RPMI, resazurin, metabolic activity reduced to 10% or less, four times on four days
[17] = biofilms cultured on polystyrene, 24 h
[18] = biofilms cultured on polystyrene, 48 h
[19] = biofilms cultured on polystyrene, 72 h

| Compound | MBEC 24 h [9, 14] | MBEC 48 h [9, 15] | MBEC 72 h [9, 16] | Fungicidal activity (MFC relative to MIC) [10] | Antibiofilm activity against any type of biofilm [11] | MHC5% (minimum hemolytic concentration causing hemolysis of 5% of human red blood cells) (human red blood cells) | MBEC against Staphylococcus aureus biofilm [12] | MBEC 24 h [9, 17] | MBEC 48 h [9, 18] | MBEC 72 h [9, 19] | MIC, range over the tested strains [10] | also measured |
| --- | --- | --- | --- | --- | --- | --- | --- | --- | --- | --- | --- | --- |
| benzalkonium chloride [reference compound] | 64 mg/L | 128 mg/L | 128 mg/L | fungicidal activity against all Candida strains |  |  |  |  |  |  |  | Minimum inhibitory concentration (MIC), C. albicans (C. albicans ATCC 10231 [1]): 2 µg/mL; Minimum fungicidal concentration (MFC), C. albicans (C. albicans ATCC 10231 [2]; [13]): 4 µg/mL; Minimum inhibitory concentration (MIC), C. glabrata (C. glabrata ATCC 15126 [3]): 1 µg/mL; Minimum fungicidal concentration (MFC), C. glabrata (C. glabrata ATCC 15126 [4]; [13]): 2 µg/mL; Minimum inhibitory concentration (MIC), C. lipolytica (C. lypolytica PCM 2680 [5]; RPMI 1640, inoculum ca. 5 × 10^3 CFU/mL): 1 µg/mL; Minimum fungicidal concentration (MFC), C. lipolytica (C. lypolytica PCM 2680 [6]; [13]): 2 µg/mL; Minimum inhibitory concentration (MIC), C. tropicalis (C. tropicalis PCM 2680 [7]): 0.5 µg/mL; Minimum fungicidal concentration (MFC), C. tropicalis (C. tropicalis PCM 2680 [8]; [13]): 2 µg/mL; Concentration effective against 48–72 h biofilms relative to MIC ([9]; C. albicans, 48–72 h biofilms, MBEC/MIC): > 60 times; Concentration effective against 24 h biofilm relative to MIC ([9]; C. albicans, 24 h biofilm, MBEC/MIC): over 30 times |
| OC(Cn1cncn1)(Cn1cncn1)c1ccc(F)cc1F [Fluconazole, fluconazole, reference compound] | >512 * mg/L | >512 * mg/L | >512 * mg/L | fungicidal activity against C. albicans and C. glabrata | showed no antibiofilm activity |  |  |  |  |  |  | MIC (C. albicans ATCC 10231 [1]; Candida albicans, ATCC10231, read-out: Minimum inhibitory concentration (MIC), C. albicans): 4000 µg/mL (≈ 13.1 mM); MFC (C. albicans ATCC 10231 [2]; Candida albicans, ATCC10231, MIC wells and two higher concentrations seeded on DSA, read-out: Minimum fungicidal concentration (MFC), C. albicans): 8000 µg/mL (≈ 26.1 mM); MIC (C. glabrata ATCC 15126 [3]; Nakaseomyces glabratus, ATCC15126, read-out: Minimum inhibitory concentration (MIC), C. glabrata): 500 µg/mL (≈ 1.63 mM); MFC (C. glabrata ATCC 15126 [4]; Nakaseomyces glabratus, ATCC15126, MIC wells and two higher concentrations seeded on DSA, read-out: Minimum fungicidal concentration (MFC), C. glabrata): 2000 µg/mL (≈ 6.53 mM); MIC (C. lypolytica PCM 2680 [5]; Yarrowia lipolytica, PCM2680, RPMI 1640, inoculum ca. 5 × 10^3 CFU/mL, read-out: Minimum inhibitory concentration (MIC), C. lipolytica): 2000 µg/mL (≈ 6.53 mM); MFC (C. lypolytica PCM 2680 [6]; Yarrowia lipolytica, PCM2680, MIC wells and two higher concentrations seeded on DSA, read-out: Minimum fungicidal concentration (MFC), C. lipolytica): 8000 µg/mL (≈ 26.1 mM); MIC (C. tropicalis PCM 2680 [7]; Candida tropicalis, PCM2680, read-out: Minimum inhibitory concentration (MIC), C. tropicalis): 2000 µg/mL (≈ 6.53 mM); MFC (C. tropicalis PCM 2680 [8]; Candida tropicalis, PCM2680, MIC wells and two higher concentrations seeded on DSA, read-out: Minimum fungicidal concentration (MFC), C. tropicalis): 8000 µg/mL (≈ 26.1 mM) |
| CCCCCCCC(=O)N[C@@H](CCCCN)C(=O)N[C@@H](CCCNC(=N)N)C(=O)N[C@H](C(=O)N[C@H](C(=O)N[C@@H](CCC(N)=O)C(=O)N[C@@H](CCCNC(=N)N)C(=O)N[C@H](C(=O)N[C@@H](CCCCN)C(=O)N[C@@H](CC(=O)O)C(=O)N[C@@H](Cc1ccccc1)C(=O)N[C@@H](CC(C)C)C(=O)N[C@@H](CCCNC(=N)N)C(N)=O)[C@@H](C)CC)C(C)C)[C@@H](C)CC [IV, C8-KR12-NH2] (Octanoyl-KRIVQRIKDFLR-NH2) |  |  |  |  |  | 64 g/L | 4 to 16 mg/L |  |  |  |  |  |
| CCCCCCC(CCCC)C(=O)N[C@@H](CCCCN)C(=O)N[C@@H](CCCNC(=N)N)C(=O)N[C@H](C(=O)N[C@H](C(=O)N[C@@H](CCC(N)=O)C(=O)N[C@@H](CCCNC(=N)N)C(=O)N[C@H](C(=O)N[C@@H](CCCCN)C(=O)N[C@@H](CC(=O)O)C(=O)N[C@@H](Cc1ccccc1)C(=O)N[C@@H](CC(C)C)C(=O)N[C@@H](CCCNC(=N)N)C(N)=O)[C@@H](C)CC)C(C)C)[C@@H](C)CC (stereo partly shown) [XIX, 2-Butyloctanoic acid-KR12-NH2] (X1-KRIVQRIKDFLR-NH2) |  |  |  |  | did not exhibit antibiofilm activity | 16 g/L |  | >512 * mg/L | >512 * mg/L | >512 * mg/L | 4 to 16 µg/mL |  |
| CCCCCCCCCCCC(=O)N[C@@H](CCCCN)C(=O)N[C@@H](CCCNC(=N)N)C(=O)N[C@H](C(=O)N[C@H](C(=O)N[C@@H](CCC(N)=O)C(=O)N[C@@H](CCCNC(=N)N)C(=O)N[C@H](C(=O)N[C@@H](CCCCN)C(=O)N[C@@H](CC(=O)O)C(=O)N[C@@H](Cc1ccccc1)C(=O)N[C@@H](CC(C)C)C(=O)N[C@@H](CCCNC(=N)N)C(N)=O)[C@@H](C)CC)C(C)C)[C@@H](C)CC [VI, C12-KR12-NH2] (Lauroyl-KRIVQRIKDFLR-NH2) |  |  |  |  |  | 4 g/L | 64 to 256 mg/L | 512 mg/L | >512 * mg/L | >512 * mg/L | 4 to 8 µg/mL |  |
| CCCCCCCCCC(=O)N[C@@H](CCCCN)C(=O)N[C@@H](CCCNC(=N)N)C(=O)N[C@H](C(=O)N[C@H](C(=O)N[C@@H](CCC(N)=O)C(=O)N[C@@H](CCCNC(=N)N)C(=O)N[C@H](C(=O)N[C@@H](CCCCN)C(=O)N[C@@H](CC(=O)O)C(=O)N[C@@H](Cc1ccccc1)C(=O)N[C@@H](CC(C)C)C(=O)N[C@@H](CCCNC(=N)N)C(N)=O)[C@@H](C)CC)C(C)C)[C@@H](C)CC [V, C10-KR12-NH2] (Decanoyl-KRIVQRIKDFLR-NH2) |  |  |  |  | did not exhibit antibiofilm activity | 4 g/L |  | >512 * mg/L | >512 * mg/L | >512 * mg/L |  |  |
